Patent US9095581B2, “Combinations of MEK inhibitors and Raf kinase inhibitors and uses thereof” (Ardea Biosciences, Inc., priority 2008, dated 2015)

Legend:
Hep3B cells = assay: In vitro cell proliferation assay of Hep3B cell line, compound A with other anticancer agents (Example 6B); assay type: cell-based, human; details: agent in combination with compound A; 3, 4 or 6 days
Procedure: Cell culture/Growth Inhibition Assay: Human hepatocelluar carcinoma Hep3B cells were obtained from ATCC (Manassas, Va.). Hep3B cells were maintained in EMEM supplemented with 10% fetal bovine serum, penicillin (100 U/ml), and streptomycin (100 μg/ml). Cells were maintained at 37° C., 5% CO2, and 100% humidity. For cell proliferation experiments, cells were plated in white 96-well plates with clear bases at either 3000 cells/100 μl/well, 2000 cells/100 μl/well or 1000 cells/100 μl/well and treated as follows for 3 days, 4 days, or 6 days respectively. […] Following incubation for the indicated time at 37° C., ATP levels were determined using CellTiterGlo (Promega, Madison, Wis.) and reading luminescence values using a Lit Biosystems Analyst HT (Sunnyvale, Calif.). The ATP level for each dose combination was determined in triplicate using independent wells, and the experiment was performed several times. […] For comparison, the dose response for each single agent was also determined. The relative cell proliferation number was determined with the following formula: […]

Hep3B Hepatoma cells = assay: In vitro cell proliferation assay of Hep3B cell line (CellTiterGlo ATP levels); assay type: cell-based, human; details: sorafenib alone
Procedure: The effect of compound A in combination with sorafenib was examined in a cell line derived from a human hepatocellular carcinoma in a cell proliferation assay.
Cell culture/Growth Inhibition Assay: Human hepatocelluar carcinoma Hep3B cells were obtained from ATCC (Manassas, Va.). Hep3B cells were maintained in EMEM supplemented with 10% fetal bovine serum, penicillin (100 U/ml), and streptomycin (100 μg/ml). Cells were maintained at 37° C., 5% CO2, and 100% humidity. For cell proliferation experiments, cells were plated in white 96-well plates with clear bases at either 3000 cells/100 μl/well, 2000 cells/100 μl/well or 1000 cells/100 μl/well and treated as follows for 3 days, 4 days, or 6 days respectively. After 24 hr, cell media was removed and replaced with media containing combinations of compound A of formula I and sorafenib. Following incubation for the indicated time at 37° C., ATP levels were determined using CellTiterGlo (Promega, Madison, Wis.) and reading luminescence values using a LJL Biosystems Analyst FIT (Sunnyvale, Calif.). The ATP level for each dose combination was determined in triplicate using independent wells, and the experiment was performed several times. […] For comparison, the dose response for each single agent was also determined. The relative cell proliferation number was determined with the following formula: […]

[1] = tested on: human gastric adenocarcinoma cell line AGS; assay: In vitro cell proliferative activity of AGS cell line (CellTiterGlo ATP levels); assay type: cell-based
Procedure: The effect of compound A in combination with sorafenib was examined in a cell line derived from a human gastric adenocarcinoma, in a cell proliferation assay.
Cell culture/Growth Inhibition Assay: The human gastric adenocarcinoma cell line AGS was obtained from ATCC (Manassas, Va.). AGS cells were maintained in DMEM/F12 supplemented with 10% fetal bovine serum, penicillin (100 U/ml), and streptomycin (100 μg/ml). Cells were maintained at 37° C., 5% CO2, and 100% humidity. For cell proliferation experiments, cells were plated in white 96-well plates with clear bases at 3000 cells/100 μl/well. After 24 hr, cell media was removed and replaced with media containing combinations of 621119 and sorafenib. Following incubation for 48 hours at 37° C., ATP levels were determined using CellTiterGlo (Promega, Madison, Wis.) and reading luminescence values using a LJL Biosystems Analyst HT (Sunnyvale, Calif.). The ATP level for each dose combination was determined in triplicate using independent wells, and the experiment was performed several times. For synergy experiments, either 621119 or sorafenib was dosed at a fixed, subefficacious dose, while the second agent (sorafenib or 621119 respectively) was added across a range of doses. For comparison, the dose response for each single agent was also determined. The relative cell proliferation number was determined with the following formula: […]

SMILES | synergy with compound A in cell proliferation (Hep3B cells) | further results
CCCCCCCCCCCCCCCCCCOP(=O)([O-])OC1CC[N+](C)(C)CC1 [Perifosine] | no synergy | 
CNC(=O)c1cc(Oc2ccc(NC(=O)Nc3ccc(Cl)c(C(F)(F)F)c3)cc2)ccn1 [sorafenib, 4-[4-[[4-chloro-3-(trifluoromethyl)phenyl]carbamoylamino]phenoxy]-N-methyl-pyridine-2-carboxamide] |  | inhibition of cell proliferation (Hep3B Hepatoma cells; 2 μM and lower, after 4 days (FIG. 8C)): little or no inhibition; inhibition of cell proliferation (Hep3B Hepatoma cells; 5 μM and lower, after 3 days (FIG. 8A)): little activity; inhibition of cell proliferation (cell number relative to vehicle) ([1]; sorafenib alone at 5 uM, after 48 hours (FIG. 9B)): little activity; inhibition of cell proliferation (relative cell number) ([1]; sorafenib alone, 5 uM and lower, after 48 hours (FIG. 9A)): little activity
CS(=O)(=O)CCNCc1ccc(-c2ccc3ncnc(Nc4ccc(OCc5cccc(F)c5)c(Cl)c4)c3c2)o1 [Lapatinib] | no synergy | 
Cc1ccc(NC(=O)c2ccc(CN3CCN(C)CC3)cc2)cc1Nc1nccc(-c2cccnc2)n1 [Imatinib] | no synergy | 
O=C(CCCCCCC(=O)Nc1ccccc1)NO [Vorinostat] | no synergy | 
Nc1ccn([C@@H]2O[C@H](CO)[C@@H](O)C2(F)F)c(=O)n1 [Gemcitabine] | no synergy | 
